Patent publication US8901308B2, “Triazole compounds that modulate Hsp90 activity” (Synta Pharmaceuticals Corp., priority 2004, dated 2014)
“Also recorded” adds a separate entry of the source.

What was measured:
c-kit in Kasumi-1 cells [1] = test: FACS-based c-kit degradation assay in Kasumi-1 cells; type: cell-based; conditions: about 18 h
Description: (§1) Two leukemia cell lines, HEL92.1.7 and Kasumi-1, were used for testing c-kit degradation induced by Hsp90 inhibitors of the invention. […] The cells were collected and centrifuged (SORVALL RT 6000D) at 1200 rpm for 5 min. The supernatants were discarded, and the cells were washed one time with 1×PBS. After centrifugation the cells were stained with FITC conjugated c-kit antibody (MBL International, Cat# K0105-4) in […] 1×PBS at 4° C. for 1 h. The samples were read and analysized with FACSCalibur flow cytometer (Becton Dicknson).

c-kit in HEL92.1.7 cells = test: FACS-based c-kit degradation assay in HEL92.1.7 cells; type: cell-based; conditions: about 18 h
Description: as §1

c-kit in Kasumi-1 cells [2] = test: Western blot analysis of c-Kit in Kasumi-1 cells; type: cell-based
Text: The results of the FACS analysis were confirmed with Western blot analysis (see FIG. 5). […] In contrast, 17-AAG had no effect of c-Kit protein levels.

[3] = test system: Her2, an Hsp90 client protein; test: Degradation of Her2 in BT-474 cells (Western blot); type: cell-based, Human; conditions: overnight
Description: Human high-Her2 breast carcinoma BT474 (HTB-20), SK-BR-3 (HTB-30) and MCF-7 breast carcinoma (HTB-22) from American Type Culture Collection, VA, USA were grown in Dulbecco's modified Eagle's medium with 4 mM L-glutamine and antibiotics (100 IU/ml penicillin and 100 ug/ml streptomycine; GibcoBRL). To obtain exponential cell growth, cells were trypsinized, counted and seeded at a cell density of 0.5×10^6 cells/ml regularly, every 3 days. All experiments were performed on day 1 after cell passage.
After treatment, each cytoplasmic sample was prepared from 1×10^6 cells by incubation of cell lysis buffer (#9803, cell Signaling Technology) on ice for 10 minutes. The resulting supernatant used as the cytosol fractions were dissolved with sample buffer for SDS-PAGE and run on a SDS-PAGE gel, blotted onto a nitrocellulose membrane by using semi-dry transfer. Non-specific binding to nitrocellulose was blocked with 5% skim milk in TBS with 0.5% Tween at room temperature for 1 hour, then probed with anti-Her2/ErB2 mAb (rabbit IgG, #2242, Cell Signaling) and anti-Tubulin (T9026, Sigma) as housekeeping control protein. HRP-conjugated goat anti-rabbit IgG (H+L) and HRP-conjugated horse anti-mouse IgG (H+L) were used as secondary Ab (#7074, #7076, Cell Signaling) and LumiGLO reagent, 20× Peroxide (#7003, Cell Signaling) was used for visualization.

Hsp90 protein = test: Malachite Green assay of ATPase activity of Hsp90; type: biochemical; conditions: 37° C., 4 hours
Description: Hsp90 protein was obtained from Stressgen (Cat#SPP-770). Assay buffer: 100 mM Tris-HCl, Ph7.4, 20 mM KCl, 6 mM MgCl2. […] Malachite green reagent was added to the reaction. […] The plate was read by an ELISA reader with an absorbance at 620 nm.

[4] = test system: RERF-LC-AI^IVP human lung tumor cells; test: RERF-LC-AI^IVP nude mouse xenograft model; type: in vivo; conditions: for Growth rate of RERF-LC-AI^IVP tumors: 5 times per week, 15 doses
Description: The human squamous non-small cell lung cancer cell line, RERF-LC-AI (RCB0444; S. Kyoizumi, et al., Cancer. Res. 45:3274-3281, 1985), was obtained from the Riken Cell Bank (Tsukuba, Ibaraki, Japan). […] FBS was obtained from American Type Culture Collection (Manassas, Va., USA) and all other reagents were obtained from Invitrogen Corp. (Carlsbad, Calif., USA). Approximately 4−5×10(6) cells that had been cryopreserved in liquid nitrogen were rapidly thawed at 37° C. and transferred to a 175 cm^2 tissue culture flask containing 50 ml of growth media and then incubated at 37° C. in a 5% CO2 incubator.
The growth media was replaced every 2-3 days until the flask became 90% confluent, typically in 5-7 days. To passage and expand the cell line, a 90% confluent flask was washed with 10 ml of room temperature phosphate buffered saline (PBS) and the cells were disassociated by adding 5 ml 1× trypsin-EDTA (Invitrogen) and incubating at 37° C. until the cells detached from the surface of the flask. To inactivate the trypsin, 5 ml of growth media was added and then the contents of the flask were centrifuged to pellet the cells. The supernatant was aspirated and the cell pellet was resuspended in 10 ml of growth media and the cell number determined using a hemocytometer. Approximately 1-3×10(6) cells per flask were seeded into 175 cm^2 flasks containing 50 ml of growth media and incubated at 37° C. in a 5% CO2 incubator. When the flasks reached 90% confluence, the above passaging process was repeated until sufficient cells had been obtained for implantation into mice.
Seven to eight week old, female Crl:CD-1-nuBR (nude) mice were obtained from Charles River Laboratories (Wilmington, Mass., USA). Animals were housed 4-5/cage in micro-isolators, with a 12 hr/12 hr light/dark cycle, acclimated for at least 1 week prior to use and fed normal laboratory chow ad libitum. Studies were conducted on animals between 8 and 12 weeks of age at implantation. […] Using a 27 gauge needle and 1 cc syringe, 0.1 ml of the cell suspension was injected subcutaneously into the flank of each nude mouse. Tumor volumes (V) were calculated by caliper measurement of the width (W), length (L) and thickness (T) of tumors using the following formula: V=0.5236×(L×W×T).
In vivo passaged RERF-LC-AI tumor cells (RERF-LC-AI^IVP) were isolated to improve the rate of tumor implantation relative to the parental cell line in nude mice. RERF-LC-AI tumors were permitted to develop in vivo until they reached approximately 250 mm^3 in volume, which required approximately 3 weeks following implantation. Mice were euthanized via CO2 asphyxiation and their exteriors sterilized with 70% ethanol in a laminar flow hood. Using sterile technique, tumors were excised and diced in 50 ml PBS using a scalpel blade. […]

[5] = test system: human tumor cell line MDA-MB-435S; test: MDA-MB-435S nude mouse xenograft model; type: in vivo; conditions: 300 mg/kg body weight IP, 5 times per week for 3 weeks
Description: FBS was obtained from Sigma-Aldrich Corp. (St. Louis, Mo., USA), and all other reagents were obtained from Invitrogen Corp. (Carlsbad, Calif., USA). Approximately 4−5×10(6) cells that had been cryopreserved in liquid nitrogen were rapidly thawed at 37° C. and transferred to a 175 cm^2 tissue culture flask containing 50 ml of growth media and then incubated at 37° C. in a 5% CO2 incubator. The growth media was replaced every 2-3 days until the flask became 90% confluent, typically in 5-7 days. To passage and expand the cell line, a 90% confluent flask was washed with 10 ml of room temperature phosphate buffered saline (PBS) and the cells were disassociated by adding 5 ml 1× Trypsin-EDTA (Invitrogen) and incubating at 37° C. until the cells detached from the surface of the flask. To inactivate the trypsin, 5 ml of growth media was added and then the contents of the flask were centrifuged to pellet the cells. The supernatant was aspirated and the cell pellet was resuspended in 10 ml of growth media and the cell number determined using a hemocytometer. […]
Six to eight week old, female Crl:CD-1-nuBR (nude) mice were obtained from Charles River Laboratories (Wilmington, Mass., USA). […] Tumor volumes (V) were calculated by caliper measurement of the width (W), length (L) and thickness (T) of tumors using the following formula: V=[…]×(L×W×T). […]

Row | Compound | c-kit degradation (c-kit in Kasumi-1 cells [1]; 0.05 μM) | c-kit degradation (c-kit in Kasumi-1 cells [1]; 0.5 μM) | c-kit degradation (c-kit in HEL92.1.7 cells; 0.05 μM) | c-kit degradation (c-kit in HEL92.1.7 cells; 0.5 μM) | Degradation of Her2 ([3]; 0.5 μM) | Degradation of Her2 ([3]; 2 μM) | Degradation of Her2 ([3]; 5 μM) | further results
1 | CC(C)c1cc(-c2nnc(S)n2-c2ccc3c(ccn3C)c2)c(O)cc1O [Compound 221, 3-(2,4-dihydroxy-5-isopropyl-phenyl)-4-(N-methyl-indol-5-yl)-5-mercapto-[1,2,4] triazole] | induced c-kit degradation | induced c-kit degradation | induced c-kit degradation | induced c-kit degradation |  |  |  | c-Kit protein levels (Western blot) (c-kit in Kasumi-1 cells [2]; 100 nM): induced the degradation of c-Kit; c-Kit protein levels (Western blot) (c-kit in Kasumi-1 cells [2]; 400 nM): induced the degradation of c-Kit
2 | Oc1ccc(-c2nnc(S)n2-c2cccc3ccccc23)c(O)c1 [Compound 108, 3-(2,4-Dihydroxy-phenyl)-4-(naphthalen-1-yl)-5-mercapto-[1,2,4] triazole] |  |  |  |  | partially degradated | partially degradated | almost completely degraded | ATPase activity of Hsp90 (Hsp90 protein; 4 μM): significant inhibition; ATPase activity of Hsp90 (Hsp90 protein; 40 μM): even greater inhibition
3 | CCc1cc(-c2nnc(S)n2-c2ccc(OC)c3c2ccn3C(C)C)c(O)cc1O [Compound 188, 3-(2,4-Dihydroxy-5-ethyl-phenyl)-4-(1-isopropyl-7-methoxy-indol-4-yl)-5-mercapto-[1,2,4] triazole] | induced c-kit degradation | induced c-kit degradation | induced c-kit degradation | induced c-kit degradation |  |  |  | Growth rate of RERF-LC-AI^IVP tumors ([4]; 200 mg/kg body weight i.p.): inhibited tumor growth; also recorded: decreased the growth rate; Maximum tolerated dose in nude mice ([4]; mouse, in vivo, ip): ~200 mg/kg body weight
4 | CCc1cc(-c2nnc(S)n2-c2cccc3ccccc23)c(O)cc1O [Compound 49, 3-(2,4-Dihydroxy-5-ethyl-phenyl)-4-(naphthalen-1-yl)-5-mercapto-[1,2,4] triazole] |  |  |  |  | partial degradated | complete degradation | complete degradation | Toxicity (effect on body weights) [5]: not associated with significant toxicity; Growth rate of MDA-MB-435S tumors ([5]; compared with 100 mg/kg 17-AAG): decreased the growth rate
5 | C=CCNC1=C2C[C@@H](C)C[C@H](OC)[C@H](O)[C@@H](C)/C=C(\C)[C@H](OC(N)=O)[C@@H](OC)/C=C\C=C(/C)C(=O)NC(=CC1=O)C2=O [Compound 17-AAG, 17-allylamino-17-demethoxygeldanamycin, reference compound] |  | could not induce c-kit degradation |  | could not induce c-kit degradation |  |  |  | c-Kit protein levels (Western blot) (c-kit in Kasumi-1 cells [2]; concentration not given): had no effect; Growth rate of RERF-LC-AI^IVP tumors ([4]; 75 mg/kg body weight i.p.): inhibited tumor growth; also recorded: decreased the growth rate; Maximum tolerated dose in nude mice ([4]; i.p., dosed at approximately the maximum tolerated dose): ~75 mg/kg body weight
